Reference: US7723356B2, “Quinuclidine derivatives and their use as muscarinic m3 receptor antagonists” (Novartis AG, priority 2004, dated 2010)

These compounds were tested against T1, human muscarinic acetylcholine M3 receptor (Homo sapiens, UniProt P20309) (assay: competitive filtration binding assay with [3H] n-methyl scopolamine (NMS)). Settings: M3 Ki, membranes from CHO cells stably transfected with human M3 receptor; [3H]NMS 0.25 nM; 17 hours at room temperature; Cheng-Prusoff correction.
T1 construct: expressed in transfected cells; host or cells: CHO cells (stably transfected), membrane preparation
T1 sequence (P20309 whole entry): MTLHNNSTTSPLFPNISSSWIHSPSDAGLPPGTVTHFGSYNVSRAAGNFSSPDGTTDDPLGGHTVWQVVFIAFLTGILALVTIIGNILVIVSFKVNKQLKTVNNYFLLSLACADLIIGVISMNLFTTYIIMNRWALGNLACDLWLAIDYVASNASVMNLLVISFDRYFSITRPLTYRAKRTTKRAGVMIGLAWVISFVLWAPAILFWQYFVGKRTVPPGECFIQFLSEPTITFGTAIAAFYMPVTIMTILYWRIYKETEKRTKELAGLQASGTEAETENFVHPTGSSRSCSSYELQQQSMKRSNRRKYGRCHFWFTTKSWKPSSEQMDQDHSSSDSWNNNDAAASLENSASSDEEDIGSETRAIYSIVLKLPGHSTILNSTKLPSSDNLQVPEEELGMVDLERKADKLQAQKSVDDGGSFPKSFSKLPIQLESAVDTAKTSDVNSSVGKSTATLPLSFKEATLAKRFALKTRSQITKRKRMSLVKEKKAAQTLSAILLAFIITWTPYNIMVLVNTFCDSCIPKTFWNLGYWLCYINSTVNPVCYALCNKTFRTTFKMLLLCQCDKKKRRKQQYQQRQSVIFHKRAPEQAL
Description: The affinity (Ki) of agents of the invention at the human muscarinic acetylcholine M3 receptor can be determined in a competitive filtration binding assay with the radio-labelled antagonist [^3H] n-methyl scopolamine methyl chloride. (NMS):
Membranes prepared from CHO cells stably transfected with human M3 receptor at 10 μg protein/well are incubated with serial dilutions of the agents of the invention, [^3H]NMS (0.25 nM) and assay buffer (20 mM HEPES, 1 mM MgCl2 at pH 7.4) for 17 hours at room temperature. The assay is carried out in a 250 μL final volume, in the presence of a final dimethyl sulfoxide concentration of 1%. Total binding of [^3H]NMS is determined in the absence of the agents of the invention with a corresponding substituted volume of assay buffer. Non-specific binding of [^3H] NMS is determined in the presence of 300 nM ipratropium bromide. Following the incubation period, the membranes are harvested onto a Unifilter™ GF/B filter plate containing 0.05% polyethyleneimine, using a Brandel™ filtration harvester 9600. Filter plates are dried for two hours at 35° C. before the addition of Microscint™ ‘O’ cocktail, and read on a Packard Topcount™ scintillator using a ^3H-Scintillation protocol. All IC50s are calculated with the aid of XL-Fit graph package and Ki values derived using the Cheng-Prusoff correction (Cheng Y., Prusoff W. H. (1973) Biochem. Pharmacol 22 3099-3109).
`O=C(C[N+]12CCC(CC1)[C@@H](OC(=O)C(O)(c1ccccc1)C1CCCCC1)C2)Nc1ccon1` (stereo partly drawn) [Example 8, (R)-3-(2-Cyclohexyl-2-hydroxy-2-phenyl-acetoxy)-1-(isoxazol-3-ylcarbamoylmethyl)-1-azonia-bicyclo[2.2.2]octane bromide] gave a Ki of 750 pM. `O=C(C[N+]12CCC(CC1)[C@@H](OC(=O)C(c1ccccc1)c1ccccc1)C2)Nc1ccon1` [Example 5, (R)-3-Diphenylacetoxy-1-(isoxazol-3-ylcarbamoylmethyl)-1-azonia-icyclo[2.2.2]octane bromide] was tested, and the Ki was 630 pM. With `Cc1ccc(C(O)(C(=O)O[C@H]2C[N+]3(CC(=O)Nc4ccon4)CCC2CC3)c2ccc(C)cc2)cc1` [Example 2, (R)-3-(2-Hydroxy-2,2-di-p-tolyl-acetoxy)-1-(isoxazol-3-ylcarbamoylmethyl)-1-azonia-bicyclo[2.2.2]octane bromide] the Ki was 1400 pM. In the case of `O=C(C[N+]12CCC(CC1)[C@@H](OC(=O)C(O)(c1ccccc1Cl)c1ccccc1Cl)C2)Nc1ccon1` [Example 1, (R)-3-[2,2-Bis-(2-chloro-phenyl)-2-hydroxy-acetoxy]-1-(isoxazol-3-ylcarbamoylmethyl)-1-azonia-bicyclo[2.2.2]octane bromide], the Ki is reported as 2300 pM. For `CC(C(=O)O[C@H]1C[N+]2(CC(=O)Nc3ccon3)CCC1CC2)(c1ccccc1)c1ccccc1` [Example 4, (R)-3-(2,2-Diphenyl-propionyloxy)-1-(isoxazol-3-ylcarbamoylmethyl)-1-azonia-bicyclo[2.2.2]octane bromide], the Ki was 650 pM.

Same assay, conditions: M3 pKi, membranes from CHO cells stably transfected with human M3 receptor; [3H]NMS 0.25 nM
`O=C(C[N+]12CCC(CC1)[C@@H](OC(=O)C(O)(c1ccccc1)C1CCCC1)C2)Nc1ccon1` (stereo partly drawn) [Example 11, (R)-3-(2-Cyclopentyl-2-hydroxy-2-phenyl-acetoxy)-1-(isoxazol-3-ylcarbamoyl-methyl)-1-azonia-bicyclo[2.2.2]octane bromide] gave a Ki of 6.31 pM. For `O=C(C[N+]12CCC(CC1)[C@@H](OC(=O)C(O)(c1ccccc1)C1CCCCC1)C2)Nc1ccon1` (stereo partly drawn) [Example 8, (R)-3-(2-Cyclohexyl-2-hydroxy-2-phenyl-acetoxy)-1-(isoxazol-3-ylcarbamoylmethyl)-1-azonia-bicyclo[2.2.2]octane bromide], the Ki was 12.6 pM. In the case of `O=C(C[N+]12CCC(CC1)[C@@H](OC(=O)C(O)(c1cccs1)C1CCCCC1)C2)Nc1ccon1` (stereo partly drawn) [Example 10, (R)-3-(2-Cyclohexyl-2-hydroxy-2-thiophen-2-yl-acetoxy)-1-(isoxazol-3-ylcarbamoylmethyl)-1-azonia-bicyclo[2.2.2]octane bromide], the Ki is reported as 11.5 pM.
